The conditions of the series: mouse, microsomes, 1 h.

Structures are written as SMILES.

Description: Metabolic stability in mouse liver microsomes assessed as reduction in NADPH incubated for 60 mins by fluorescence based assay relative to control

On to `CCOC(=O)N1CCC(NC(=S)Nc2cc(Cl)cc(Cl)c2)CC1`, for which the Stability entry is reported as “Stable”.

The values above are taken from ChEMBL document CHEMBL6103551 (Bioorg Med Chem Lett, 2025).
